Measured values as given in patent US8071345B2, “Stabilized subtilisin composition” (Novozymes A/S, priority 2006, dated 2011).

Target: subtilisin (Bacillus licheniformis, UniProt P00780)
Sequence (P00780 106-379): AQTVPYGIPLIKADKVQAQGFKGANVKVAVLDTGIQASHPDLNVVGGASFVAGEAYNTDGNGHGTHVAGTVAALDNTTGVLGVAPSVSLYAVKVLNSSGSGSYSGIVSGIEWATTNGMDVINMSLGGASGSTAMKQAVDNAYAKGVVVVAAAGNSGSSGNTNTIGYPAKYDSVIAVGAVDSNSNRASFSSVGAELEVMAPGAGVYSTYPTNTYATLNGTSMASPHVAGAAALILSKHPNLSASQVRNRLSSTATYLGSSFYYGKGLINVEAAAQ
Experiment: not given
Settings: Keller et al, Biochem. Biophys. Res. Com. 176, 1991; cited from earlier work
In the case of `CB(O)O` [methylboronic acid], the “capacity as subtilisin inhibitor” value is given as “poorest inhibitor”. For `OB(O)c1cc(Cl)cc(Cl)c1` [3,5-dichlorophenylboronic acid], the “capacity as subtilisin inhibitor” value is given as “particularly effective”.

Target: T1, Savinase (Lederbergia lenta, UniProt P29600)
T1 construct: Novozymes A/S
T1 sequence (P29600 1-269): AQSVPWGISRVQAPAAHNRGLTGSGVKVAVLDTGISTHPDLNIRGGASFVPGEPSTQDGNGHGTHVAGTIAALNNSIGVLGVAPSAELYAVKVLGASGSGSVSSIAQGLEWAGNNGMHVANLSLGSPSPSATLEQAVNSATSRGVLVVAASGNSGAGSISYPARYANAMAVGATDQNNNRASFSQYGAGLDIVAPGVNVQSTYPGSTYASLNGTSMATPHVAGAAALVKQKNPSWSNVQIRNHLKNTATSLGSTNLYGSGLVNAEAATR
Experiment: biochemical
Settings: not given
Experimental: The inhibition constant KI=[E][I]/[EI] for the inhibition of Savinase was determined using standard methods under the following conditions:
Substrate: Succinyl-Alanine-Alanine-Proline-para-nitro-anilide=SAAPFpNA (Sigma S-7388).
Buffer: 0.1 M phosphate buffer pH 7.5
Enzyme concentration in assay≈1×10^−8 M
The initial rate of substrate hydrolysis was determined with and without inhibitor at nine substrate concentrations in the range of 0.01 mM to 2 mM using an automated spectrophotometer.
The inhibition constant KI was determined using Sigma Plot 9.0, Enzyme Kinetics Module 1.1
In the case of `O=C(O)c1ccccc1` [Benzoic Acid], the Ki is reported as 22 mM. `O=C(O)c1cccc(Cl)c1` [3-chlorobenzoic acid] gave a Ki of 4 mM. `Nc1ccccc1C(=O)O` [2-aminobenzoic acid] gave a Ki of 16 mM. For `O=Cc1ccc(O)c(O)c1` [3,4-dihydrozybenzaldehyde], the Ki was 11 mM. `O=C(O)Cc1cccc(Cl)c1` [3-chlorophenylacetic acid] gave a Ki of 7 mM. In the case of `O=C(O)Cc1ccccc1Cl` [2-chlorophenylacetic acid], the Ki is reported as 11 mM. `O=C(O)Cc1ccccc1` [Phenylacetic acid] showed a Ki of 10 mM.

Same assay, conditions: Example 1; 0.1 M phosphate buffer pH 7.5, 25° C., substrate SAAPFpNA 0.01-2 mM, enzyme ≈1×10^−8 M; read-out: Ki
For `O=C(O)CCc1ccccc1` [Phenylpropionic acid], the Ki was 9 mM. `O=C(O)c1cc(Cl)cc(Cl)c1` [3,5-dichorobenzoic acid] gave a Ki of 2 mM. In the case of `O=Cc1ccc(C(=O)O)cc1` [4-formylbenzoic acid], the Ki is reported as 25 mM. `O=C(O)c1ccc(C(=O)O)cc1` [Terephtalic acid (4-carboxybenzoic acid)] gave a Ki of 99 mM.

Same assay, conditions: Example 2, acids; 0.1 M phosphate buffer pH 7.5, 25° C., substrate SAAPFpNA 0.01-2 mM, enzyme ≈1×10^−8 M; read-out: Ki
With `O=C(O)c1cccc(Br)c1` [3-bromobenzoic acid] the Ki was 6 mM. Molecule `Nc1ccc(C(=O)O)cc1` [4-aminobenzoic acid] has a Ki of 82 mM. With `O=C(O)c1cccc([N+](=O)[O-])c1` [3-nitrobenzoic acid] the Ki was 9 mM. Work on `O=C(O)c1cccc(F)c1` [3-fluorobenzoic acid] yielded a Ki of 17 mM. `O=C(O)c1cc(O)cc(O)c1` [3,5-dihydroxybenzoic acid] gave a Ki of 76 mM. With `O=C(O)c1cccc(O)c1` [3-hydroxybenzoic acid] the Ki was 29 mM. Molecule `O=C(O)c1cccc(I)c1` [3-iodobenzoic acid] has a Ki of 9 mM. `O=C(O)CCc1ccc(Cl)cc1` [3-(4-chlorophenyl)propionic acid] gave a Ki of 10 mM. Work on `O=C(O)c1ccccc1Cl` [2-chlorobenzoic acid] yielded a Ki of 16 mM. Work on `O=C(O)CCc1cccc(Cl)c1` [3-(3-chlorophenyl)propionic acid] yielded a Ki of 5 mM. Work on `O=C(O)CCCc1ccccc1` [4-phenylbutyric acid] yielded a Ki of 19 mM. In the case of `O=Cc1cccc(C(=O)O)c1` [3-formylbenzoic acid], the Ki is reported as 27 mM. `Nc1cccc(C(=O)O)c1` [3-aminobenzoic acid] gave a Ki of 43 mM. Molecule `O=C(O)Cc1ccc(Cl)cc1` [4-chlorophenylacetic acid] has a Ki of 11 mM. Molecule `O=C(O)c1cccc(CCl)c1` [3-(chloromethyl)benzoic acid] has a Ki of 32 mM.

Same assay, conditions: Example 3, aldehydes; 0.1 M phosphate buffer pH 7.5, 25° C., substrate SAAPFpNA 0.01-2 mM, enzyme ≈1×10^−8 M; read-out: Ki
With `O=Cc1cccc(O)c1` [3-hydroxybenzaldehyde] the Ki was 16 mM.

Tested on: proteolytic enzymes
Experiment: not given
Settings: as claimed in WO 92/19707; cited from earlier work
For `CC(=O)Nc1cccc(B(O)O)c1` [acetamidophenyl boronic acid], the “inhibitor of proteolytic enzymes” value is given as “superior inhibitor”.
